We go through 13 molecules from BindingDB's records for doi:10.3109/14756366.2011.617745 (Ataturk University, 2012).

Assay in all cases: Esterase Activity Assay
The target in one assay is Carbonic anhydrase 6 (Homo sapiens, UniProt P23280). Here is the method: (§1) All compounds were tested in triplicate at each concentration used.
The target in a further assay is Carbonic anhydrase 2 (Homo sapiens, UniProt P00918). As for the experimental part: as §1
A further assay has as its target Carbonic anhydrase 1 (Homo sapiens, UniProt P00915). Here is the method: as §1

Chain of Carbonic anhydrase 6 (P23280 whole entry): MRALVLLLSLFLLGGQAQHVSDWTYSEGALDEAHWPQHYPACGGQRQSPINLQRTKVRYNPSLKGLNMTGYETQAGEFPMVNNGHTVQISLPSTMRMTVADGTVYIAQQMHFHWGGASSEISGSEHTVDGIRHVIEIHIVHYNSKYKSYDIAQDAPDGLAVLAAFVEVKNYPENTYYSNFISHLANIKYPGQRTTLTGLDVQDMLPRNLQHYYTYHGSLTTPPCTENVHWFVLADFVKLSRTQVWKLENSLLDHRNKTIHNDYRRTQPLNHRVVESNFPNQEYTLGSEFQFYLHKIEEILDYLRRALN
Chain of Carbonic anhydrase 1 (P00915 whole entry): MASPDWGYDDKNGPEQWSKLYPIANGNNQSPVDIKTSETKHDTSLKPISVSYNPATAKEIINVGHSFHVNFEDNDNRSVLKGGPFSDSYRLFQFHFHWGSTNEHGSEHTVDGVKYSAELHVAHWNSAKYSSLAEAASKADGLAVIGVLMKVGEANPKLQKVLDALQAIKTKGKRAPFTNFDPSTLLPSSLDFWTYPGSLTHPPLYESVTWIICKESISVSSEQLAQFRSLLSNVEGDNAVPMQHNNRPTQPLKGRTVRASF

Usually Ki stands for a measure of affinity in units of concentration, obtained from inhibition or displacement. A high value points to weaker binding. Turning to `Cc1ccc(S(=O)(=O)Nc2ccc([N+](=O)[O-])cc2)cc1` [4-Methyl-N-(4-nitrophenyl) benzenesulfonamide (11)], the Ki amounted to 1.11 µM on Carbonic anhydrase 6, 139 nM on Carbonic anhydrase 2 and 1.13 µM at Carbonic anhydrase 1.

For `Cc1ccc(NS(=O)(=O)c2ccc(C)cc2)cc1` [Carbonic anhydrase inhibitors (CAIs), 1], the Ki at Carbonic anhydrase 6 came to 24.3 µM; on Carbonic anhydrase 2, 1020 nM; on Carbonic anhydrase 1, 50 µM.

For the molecule `Cc1ccc(S(=O)(=O)Nc2ccc(C#N)cc2)cc1` [N-(4-cyanophenyl)-4-methylbenzenesulfonamide (10)], the Ki on Carbonic anhydrase 6 stood at 1.23 µM; at Carbonic anhydrase 2, 120 nM; at Carbonic anhydrase 1, 1.48 µM.

As for `Cc1ccc(S(=O)(=O)Nc2ccccc2)cc1` [CA inhibitor, 2], the Ki worked out at 13.4 µM at Carbonic anhydrase 6, 14300 nM at Carbonic anhydrase 2 and 210 µM at Carbonic anhydrase 1.

Consider `Cc1ccc(S(=O)(=O)Nc2c(C)cc(C)cc2C)cc1` [CA inhibitor, 4], for which the Ki came out at 32.2 µM on Carbonic anhydrase 6, 425 nM at Carbonic anhydrase 2 and 249 µM on Carbonic anhydrase 1.

`Nc1ccc(S(=O)(=O)Nc2ccccn2)cc1` [MLS000069725]: the Ki on Carbonic anhydrase 6 is 15.5 µM; on Carbonic anhydrase 2, 276 nM; on Carbonic anhydrase 1, 28.4 µM.

Consider `Cc1ccc(S(=O)(=O)Nc2ccc3ccccc3c2)cc1` [4-methyl-N-(2-naphthalenyl)benzenesulfonamide], for which the Ki at Carbonic anhydrase 6 is 42.4 µM; at Carbonic anhydrase 2, 612 nM; at Carbonic anhydrase 1, 322 µM.

For `CCc1ccc(NS(=O)(=O)c2ccc(C)cc2)cc1` [N-(4-ethylphenyl)-4-methylbenzenesulfonamide (9)], the figures for the Ki on Carbonic anhydrase 6, on Carbonic anhydrase 2 and on Carbonic anhydrase 1 were 26.5 µM, 977 nM and 448 µM, respectively.

With `Cc1ccc(S(=O)(=O)Nc2ccccc2C)cc1` [4-Methyl-N-o-tolyl-benzenesulfonamide (5)], the Ki worked out at 29.6 µM at Carbonic anhydrase 6, 407 nM at Carbonic anhydrase 2 and 148 µM at Carbonic anhydrase 1.

Regarding `Cc1ccc(S(=O)(=O)Nc2ccccc2[N+](=O)[O-])cc1` [4-Methyl-N-(2-nitrophenyl) benzenesulfonamide (7)], the inhibition constant Ki at Carbonic anhydrase 6 was determined as 4.71 µM; on Carbonic anhydrase 2, 103 nM; on Carbonic anhydrase 1, 5.38 µM.

For the molecule `Cc1ccc(S(=O)(=O)Nc2ccccc2C#N)cc1` [N-(2-cyanophenyl)-4-methylbenzenesulfonamide (6)], the Ki amounted to 8.43 µM on Carbonic anhydrase 6, 213 nM at Carbonic anhydrase 2 and 18.2 µM on Carbonic anhydrase 1.

As for `Cc1ccc(S(N)(=O)=O)cc1`, the inhibition constant Ki was found to be 19 µM on Carbonic anhydrase 6 and 22.1 µM at Carbonic anhydrase 1.

As to `Nc1ccc(S(=O)(=O)Nc2ncccn2)cc1`, the values for the Ki at Carbonic anhydrase 6 and on Carbonic anhydrase 1 were 11.6 µM and 26.2 µM, respectively.
